Laboratory results: patent publication US10245240B2, “Treatment of prostate carcinoma” (Pellficure Pharmaceuticals, Inc., priority 2010, dated 2019)

Test system: PTEN-P2/GFP prostate cancer cells
Assay: Effect of naphthoquinone analogs on PTEN-P2/GFP cell proliferation (CellTiter96 formazan-based viability assay)
Settings: for IC50 / viability at 1 µM / viability at 2 µM / viability at 3 µM / viability at 4 µM / viability at 5 µM / viability at 7 µM / viability at 10 µM / viability at 25 µM / viability at 50 µM: Mus musculus, 24 h; for % viability: 24 hrs, listed as 2,6-di-tert-butyl-1,4-naphtoquinone
[1] = 1 μM, medium with 10% FBS and DHT
[2] = 2 μM, medium with 10% FBS and DHT
[3] = 3 μM, medium with 10% FBS and DHT
[4] = 4 μM, medium with 10% FBS and DHT
[5] = 5 μM, medium with 10% FBS and DHT
[6] = 7 μM, medium with 10% FBS and DHT
[7] = 10 μM, medium with 10% FBS and DHT
[8] = 25 μM, medium with 10% FBS and DHT
[9] = 50 μM, medium with 10% FBS and DHT

Experimental: Cell culture: PTEN-P2/GFP are cells that stably express histone H2B-GFP fusion protein.
Cells are grown in DMEM medium containing 10% FBS, 2 mM L-glutamine, 100 U/ml penicillin/100 μg/ml streptomycin, insulin-selenium-transferrin (5 μg/ml insulin), and DHT 10^−8 M final. Androgen withdrawal is achieved by keeping the cells in phenol red-free DMEM medium containing 10% charcoal-treated FBS and the same supplements as in the normal medium except for DHT. Cells are maintained in a humidified incubator at 37° C. and 5% CO2. G418 (100 μg/ml) is added to maintain stable expression of H2B-GFP.
PTEN-P2/GFP prostate cancer cells were plated at a density of 8000 cells/well in 96-well plates (triplicates) in growing medium containing 10% Fetal Bovine Serum and DHT. The next day, increasing concentrations of a naphthoquinone analog (diluted from 10 mM DMSO stock solutions) were incubated for 24 hrs. Cell viability was determined by the formazan-based cytotoxicity assay “CellTiter96Aquaeous nonradioactive proliferation assay” (Promega).

SMILES	IC50 [µM]	viability at 1 µM [1] [%]	viability at 2 µM [2] [%]	viability at 3 µM [3] [%]	viability at 4 µM [4] [%]	viability at 5 µM [5] [%]	viability at 7 µM [6] [%]	viability at 10 µM [7] [%]	viability at 25 µM [8] [%]	viability at 50 µM [9] [%]	further results
O=C1C=CC(=O)c2ccccc21 [1,4-naphthoquinone]	24.1	100	97	93.9	90.4	90.1	88.7	83	47.3	0.1	–
COC1=C(OC)C(=O)c2ccccc2C1=O [DMNQ, 2,3-Dimethoxy-1,4-naphthoquinone]	7.35	95	91	88.5	85.9	85.3	58.3	2.4	0.9	0.8	–
CC(C)=CCC1=C(O)C(=O)c2ccccc2C1=O [Lapachol]	> 50	106	105	102	103	99.8	99.7	99.6	96.2	86.1	–
O=C1C=CC(=O)c2c(O)cccc21 [Juglone]	5.3	90.7	85.1	80.6	80.5	58.2	2.3	1.1	2.5	5.3	–
O=C1C=C(O)C(=O)c2ccccc21 [Lawsone]	> 50	90.1	85.1	81.3	82.5	80.4	80.3	83.1	87	96	–
CC1=CC(=O)c2ccccc2C1=O [Menadione, menadione]	14.5	95	93.1	90.2	93.5	89.4	94	77.5	2.4	2.9	–
O=C1C=CC(=O)c2c(O)ccc(O)c21 [Naphthazarin]	1.65	–	–	–	–	–	–	–	–	–	viability at 1 µM: 73.4%; viability at 2 µM: 36.4%; viability at 3 µM: 8.9%; viability at 4 µM: 1.5%; viability at 5 µM: 1.7%; viability at 7 µM: 2.2%; viability at 10 µM: 2.4%; viability at 25 µM: 5.4%; viability at 50 µM: 9.1%
COC1=CC(=O)c2ccccc2C1=O [2-methoxy-1,4-naphthoquinone]	8.95	93.1	88.4	86.9	85	82.5	67.2	43.5	0.3	–	–
O=C1C(Cl)=C(Cl)C(=O)c2ccccc21 [Dichlon]	37.8	–	–	–	–	–	–	–	–	–	viability at 1 µM: 96.5%; viability at 2 µM: 95.6%; viability at 3 µM: 92.3%; viability at 4 µM: 92.2%; viability at 5 µM: 91.8%; viability at 7 µM: 99.3%; viability at 10 µM: 87.1%; viability at 25 µM: 89.2%; viability at 50 µM: 4.9%
O=C1C(O)=C(C2=C(O)C(=O)c3ccccc3C2=O)C(=O)c2ccccc21 [Lawsone dimer]	> 50	98.3	98.6	97.4	95.1	96.8	96.1	98.6	99.4	97.9	–
CC(C)(C)C1=CC(=O)c2cc(C(C)(C)C)ccc2C1=O [2,6-di-tert-butyl-1,4-naphthoquinone]	–	104	–	–	–	–	–	–	–	–	% viability [2]: 104.5%; % viability [3]: 104.7%; % viability [4]: 103.0%; % viability [5]: 104.0%; % viability [6]: 102.8%; % viability [7]: 102.2%; % viability [8]: 102.9%; % viability [9]: 92.9%
O=C1C(SCCO)=C(SCCO)C(=O)c2ccccc21 [NSC 95397, 2,3-Bis[(2-hydroxyethyl)thio]-1,4-naphthoquinone]	6.2	104	101	86.6	68.4	53.8	47.1	36.3	15.1	4.8	–
